Reference: patent publication US20250074891A1 (Anaxis Pharma Pty Ltd., priority 2021, published 2025)

Columns and labels:
Conditions in all cases: Table 35
[1] = molecular target: MLKL (full length) (Homo sapiens (Human), UniProt Q8NB16); experiment: KINOMEscan binding assay, MLKL (full length)
Method: (§1) Kinase assays. For most assays, kinase-tagged T7 phage strains were grown in parallel in 24-well blocks in an E. coli host derived from the BL21 strain. E. coli were grown to log-phase and infected with T7 phage from a frozen stock (multiplicity of infection=0.4) and incubated with shaking at 32° C. until lysis (90-150 minutes).
(§2) The Hill Slope was set to −1.

[2] = molecular target: RIP1 (Homo sapiens (Human), UniProt Q13546); experiment: KINOMEscan binding assay, RIP1
[3] = molecular target: RIP3 (Homo sapiens (Human), UniProt Q9Y572); experiment: KINOMEscan binding assay, RIP3
Method: as §1, §2

Sequence of MLKL (full length) (Q8NB16 whole entry): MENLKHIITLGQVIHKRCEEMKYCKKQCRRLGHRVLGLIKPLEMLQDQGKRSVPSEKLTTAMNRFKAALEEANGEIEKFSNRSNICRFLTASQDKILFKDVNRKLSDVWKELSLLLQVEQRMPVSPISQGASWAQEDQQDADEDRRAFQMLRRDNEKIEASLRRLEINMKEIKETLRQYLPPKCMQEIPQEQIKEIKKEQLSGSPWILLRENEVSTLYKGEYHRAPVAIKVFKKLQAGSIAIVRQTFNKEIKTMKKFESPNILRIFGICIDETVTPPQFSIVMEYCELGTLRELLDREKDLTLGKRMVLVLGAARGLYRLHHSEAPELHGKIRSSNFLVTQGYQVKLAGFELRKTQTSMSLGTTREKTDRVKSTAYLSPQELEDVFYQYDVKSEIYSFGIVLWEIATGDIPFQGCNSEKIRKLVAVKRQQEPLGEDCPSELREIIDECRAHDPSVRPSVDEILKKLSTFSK
Sequence of RIP3 (Q9Y572 whole entry): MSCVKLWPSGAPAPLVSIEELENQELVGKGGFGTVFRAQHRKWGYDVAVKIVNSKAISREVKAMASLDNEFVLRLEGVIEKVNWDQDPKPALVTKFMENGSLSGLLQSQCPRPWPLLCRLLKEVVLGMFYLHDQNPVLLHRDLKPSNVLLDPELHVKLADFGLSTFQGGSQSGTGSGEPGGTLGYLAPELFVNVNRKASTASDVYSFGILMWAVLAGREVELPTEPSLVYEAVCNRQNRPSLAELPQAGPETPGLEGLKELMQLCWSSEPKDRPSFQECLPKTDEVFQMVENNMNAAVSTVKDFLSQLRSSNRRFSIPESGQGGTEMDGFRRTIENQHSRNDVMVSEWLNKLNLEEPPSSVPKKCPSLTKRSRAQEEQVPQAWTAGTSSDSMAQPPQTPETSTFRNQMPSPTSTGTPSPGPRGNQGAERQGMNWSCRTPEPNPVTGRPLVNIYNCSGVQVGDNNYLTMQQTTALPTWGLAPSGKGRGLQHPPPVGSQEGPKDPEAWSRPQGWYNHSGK
Sequence of RIP1 (Q13546 whole entry): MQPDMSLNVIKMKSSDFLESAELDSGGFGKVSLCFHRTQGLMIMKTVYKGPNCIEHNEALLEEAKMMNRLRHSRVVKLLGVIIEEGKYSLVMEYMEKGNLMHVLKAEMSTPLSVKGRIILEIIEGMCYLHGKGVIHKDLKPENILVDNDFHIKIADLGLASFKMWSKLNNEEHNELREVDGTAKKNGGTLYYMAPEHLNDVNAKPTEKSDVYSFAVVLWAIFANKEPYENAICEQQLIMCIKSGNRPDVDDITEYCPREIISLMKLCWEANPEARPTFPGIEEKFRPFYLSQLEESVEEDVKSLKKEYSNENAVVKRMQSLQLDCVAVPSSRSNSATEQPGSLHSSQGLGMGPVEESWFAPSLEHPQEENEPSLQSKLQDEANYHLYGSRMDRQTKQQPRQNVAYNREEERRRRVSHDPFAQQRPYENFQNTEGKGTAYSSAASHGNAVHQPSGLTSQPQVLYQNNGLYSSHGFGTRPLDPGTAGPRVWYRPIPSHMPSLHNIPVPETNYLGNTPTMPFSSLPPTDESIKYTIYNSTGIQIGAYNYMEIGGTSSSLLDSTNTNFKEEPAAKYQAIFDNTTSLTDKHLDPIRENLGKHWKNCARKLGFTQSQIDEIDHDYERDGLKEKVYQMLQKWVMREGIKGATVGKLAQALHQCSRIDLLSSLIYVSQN

| SMILES | Kd [1] [µM] | Kd [2] [µM] | Kd [3] [µM] |
| --- | --- | --- | --- |
| C[C@H](Oc1cc(-c2n[nH]c(Nc3cc(C4CCOC4)on3)c2C(N)=O)ccc1NS(=O)(=O)C(F)F)c1ccc(F)cc1 (stereo partly drawn) [Compound 305, 3-(4-((difluoromethyl)sulfonamido)-3-((S)-1-(4-fluorophenyl)ethoxy)phenyl)-5-((5-(tetrahydrofuran-3-yl)isoxazol-3-yl)amino)-1H-pyrazole-4-carboxamide] | < 0.01 | > 30 | > 30 |
| C[C@H](Oc1cc(-c2n[nH]c(Nc3cnn(C4CCOCC4)c3)c2C(N)=O)ccc1NS(=O)(=O)C(F)F)c1ccc(F)cc1 [Compound 306, (S)-3-(4-((difluoromethyl)sulfonamido)-3-(1-(4-fluorophenyl)ethoxy)phenyl)-5-((1-(tetrahydro-2H-pyran-4-yl)-1H-pyrazol-4-yl)amino)-1H-pyrazole-4-carboxamide] | < 0.01 | > 30 | > 30 |
| NC(=O)c1c(-c2ccc(NS(=O)(=O)C(F)F)c(OC3(c4ccc(F)cc4)CC3)c2)n[nH]c1Nc1cnccn1 [Compound 307, 3-(4-((difluoromethyl)sulfonamido)-3-(1-(4-fluorophenyl)cyclopropoxy)phenyl)-5-(pyrazin-2-ylamino)-1H-pyrazole-4-carboxamide] | < 0.01 | > 30 | > 30 |
| C[C@H](Oc1cc(-c2n[nH]c(Nc3cc4n(n3)CCOC4)c2C(N)=O)ccc1NS(=O)(=O)C(F)F)c1ccc(F)cc1 [Compound 308, (S)-3-(4-((difluoromethyl)sulfonamido)-3-(1-(4-fluorophenyl)ethoxy)phenyl)-5-((6,7-dihydro-4H-pyrazolo[5,1-c][1,4]oxazin-2-yl)amino)-1H-pyrazole-4-carboxamide] | < 0.01 | > 30 | > 30 |
| Cc1nccc(Nc2[nH]nc(-c3ccc(NS(=O)(=O)C(F)F)c(O[C@@H](C)c4ccc(F)cc4)c3)c2C(N)=O)n1 [Compound 309, (S)-3-(4-((difluoromethyl)sulfonamido)-3-(1-(4-fluorophenyl)ethoxy)phenyl)-5-((2-methylpyrimidin-4-yl)amino)-1H-pyrazole-4-carboxamide] | < 0.01 | > 30 | > 30 |
| C[C@H](Oc1cc(-c2n[nH]c(Nc3cnc(C(C)(C)C)cn3)c2C(N)=O)ccc1NS(=O)(=O)C(F)F)c1ccc(F)cc1 [Compound 312, (S)-5-((5-(tert-butyl)pyrazin-2-yl)amino)-3-(4-((difluoromethyl)sulfonamido)-3-(1-(4-fluorophenyl)ethoxy)phenyl)-1H-pyrazole-4-carboxamide] | < 0.01 | > 30 | > 30 |
| NC(=O)c1c(-c2ccc(NS(=O)(=O)C(F)F)c(OCc3ncco3)c2)n[nH]c1Nc1cnccn1 [Compound 313, 3-(4-((difluoromethyl)sulfonamido)-3-(oxazol-2-ylmethoxy)phenyl)-5-(pyrazin-2-ylamino)-1H-pyrazole-4-carboxamide] | < 0.01 | > 30 | > 30 |
| C[C@H](Oc1cc(-c2n[nH]c(Nc3cc(C(F)F)on3)c2C(N)=O)ccc1NS(=O)(=O)C(F)F)c1ccc(F)cc1 [Compound 314, (S)-5-((5-(difluoromethyl)isoxazol-3-yl)amino)-3-(4-((difluoromethyl)sulfonamido)-3-(1-(4-fluorophenyl)ethoxy)phenyl)-1H-pyrazole-4-carboxamide] | < 0.01 | > 30 | > 30 |
| CCS(=O)(=O)Nc1ccc(-c2n[nH]c(Nc3ccc(C(=O)O)cn3)c2C(N)=O)cc1O[C@@H](C)c1ccc(F)cc1 [Compound 315, (S)-6-((4-carbamoyl-3-(4-(ethylsulfonamido)-3-(1-(4-fluorophenyl)ethoxy)phenyl)-1H-pyrazol-5-yl)amino)nicotinic acid] | < 0.01 | > 30 | > 30 |
| C[C@H](Oc1cc(-c2n[nH]c(Nc3cnc(C4CC4)cn3)c2C(N)=O)ccc1NS(=O)(=O)C(F)F)c1ccc(F)cc1 [Compound 316, (S)-5-((5-cyclopropylpyrazin-2-yl)amino)-3-(4-((difluoromethyl)sulfonamido)-3-(1-(4-fluorophenyl)ethoxy)phenyl)-1H-pyrazole-4-carboxamide] | < 0.01 | > 30 | > 30 |
| CCS(=O)(=O)Nc1ccc(-c2n[nH]c(Nc3cc(C)on3)c2C(N)=O)cc1O[C@@H](C)c1ccc(F)cc1 [Compound 317, (S)-3-(4-(ethylsulfonamido)-3-(1-(4-fluorophenyl)ethoxy)phenyl)-5-((5-methylisoxazol-3-yl)amino)-1H-pyrazole-4-carboxamide] | < 0.01 | > 30 | > 30 |
| C[C@H](Oc1cc(-c2n[nH]c(Nc3cc4n(n3)CCCN(C)C4)c2C(N)=O)ccc1NS(=O)(=O)C(F)F)c1ccc(F)cc1 [Compound 318, (S)-3-(4-((difluoromethyl)sulfonamido)-3-(1-(4-fluorophenyl)ethoxy)phenyl)-5-((5-methyl-5,6,7,8-tetrahydro-4H-pyrazolo[1,5-a][1,4]diazepin-2-yl)amino)-1H-pyrazole-4-carboxamide] | < 0.01 | > 30 | > 30 |
| COCC(Oc1cc(-c2n[nH]c(Nc3cnccn3)c2C(N)=O)ccc1NS(=O)(=O)C(F)F)c1ccc(F)cc1 (stereo not drawn) [Compound 319, 3-(4-((difluoromethyl)sulfonamido)-3-(1-(4-fluorophenyl)-2-methoxyethoxy)phenyl)-5-(pyrazin-2-ylamino)-1H-pyrazole-4-carboxamide] | < 0.01 | > 30 | > 30 |

Other lines, results leading:

| Kd [1] [µM] | Kd [2] [µM] | Kd [3] [µM] | SMILES |
| --- | --- | --- | --- |
| < 0.01 | > 30 | > 30 | C[C@H](Oc1cc(-c2n[nH]c(Nc3cc(C4(C(F)(F)F)CC4)on3)c2C(N)=O)ccc1NS(=O)(=O)C(F)F)c1ccc(F)cc1 [Compound 289, (S)-3-(4-((difluoromethyl)sulfonamido)-3-(1-(4-fluorophenyl)ethoxy)phenyl)-5-((5-(1-(trifluoromethyl)cyclopropyl)isoxazol-3-yl)amino)-1H-pyrazole-4-carboxamide] |
| < 0.01 | > 30 | > 30 | Cc1cnc(Nc2[nH]nc(-c3ccc(NS(=O)(=O)C(F)F)c(OC4(c5ccc(F)cc5)CC4)c3)c2C(N)=O)cn1 [Compound 290, 3-(4-((difluoromethyl)sulfonamido)-3-(1-(4-fluorophenyl)cyclopropoxy)phenyl)-5-((5-methylpyrazin-2-yl)amino)-1H-pyrazole-4-carboxamide] |
| < 0.01 | > 30 | > 30 | C[C@H](Oc1cc(-c2n[nH]c(Nc3cc(C4(C)COC4)on3)c2C(N)=O)ccc1NS(=O)(=O)C(F)F)c1ccc(F)cc1 [Compound 292, (S)-3-(4-((difluoromethyl)sulfonamido)-3-(1-(4-fluorophenyl)ethoxy)phenyl)-5-((5-(3-methyloxetan-3-yl)isoxazol-3-yl)amino)-1H-pyrazole-4-carboxamide] |
| < 0.01 | > 30 | > 30 | COc1cc(Nc2[nH]nc(-c3ccc(NS(=O)(=O)C(F)F)c(O[C@@H](C)c4ccc(F)cc4)c3)c2C(N)=O)nn1C [Compound 294, (S)-3-(4-((difluoromethyl)sulfonamido)-3-(1-(4-fluorophenyl)ethoxy)phenyl)-5-((5-methoxy-1-methyl-1H-pyrazol-3-yl)amino)-1H-pyrazole-4-carboxamide] |
| < 0.01 | > 30 | > 30 | C[C@H](Oc1cc(-c2n[nH]c(Nc3cc(C(C)(C)C)no3)c2C(N)=O)ccc1NS(=O)(=O)C(F)F)c1ccc(F)cc1 [Compound 295, (S)-5-((3-(tert-butyl)isoxazol-5-yl)amino)-3-(4-((difluoromethyl)sulfonamido)-3-(1-(4-fluorophenyl)ethoxy)phenyl)-1H-pyrazole-4-carboxamide] |
| < 0.01 | > 30 | > 30 | C[C@H](Oc1cc(-c2n[nH]c(Nc3cnc(C4CCOCC4)cn3)c2C(N)=O)ccc1NS(=O)(=O)C(F)F)c1ccc(F)cc1 [Compound 296, (S)-3-(4-((difluoromethyl)sulfonamido)-3-(1-(4-fluorophenyl)ethoxy)phenyl)-5-((5-(tetrahydro-2H-pyran-4-yl)pyrazin-2-yl)amino)-1H-pyrazole-4-carboxamide] |
| < 0.01 | > 30 | > 30 | C[C@H](Oc1cc(-c2n[nH]c(Nc3cc(C(C)(C)F)on3)c2C(N)=O)ccc1NS(=O)(=O)C(F)F)c1ccc(F)cc1 [Compound 297, (S)-3-(4-((difluoromethyl)sulfonamido)-3-(1-(4-fluorophenyl)ethoxy)phenyl)-5-((5-(2-fluoropropan-2-yl)isoxazol-3-yl)amino)-1H-pyrazole-4-carboxamide] |
| < 0.01 | > 30 | > 30 | COC[C@@H](Oc1cc(-c2n[nH]c(Nc3cc(C)on3)c2C(N)=O)ccc1NS(=O)(=O)C(F)F)c1ccc(F)cc1 [Compound 300, (S)-3-(4-((difluoromethyl)sulfonamido)-3-(1-(4-fluorophenyl)-2-methoxyethoxy)phenyl)-5-((5-methylisoxazol-3-yl)amino)-1H-pyrazole-4-carboxamide] |
| < 0.01 | > 30 | > 30 | Cc1cc(Nc2[nH]nc(-c3ccc(NS(=O)(=O)C(F)F)c(O[C@@H](C)c4ccc(F)cc4)c3)c2C(N)=O)on1 [Compound 302, (S)-3-(4-((difluoromethyl)sulfonamido)-3-(1-(4-fluorophenyl)ethoxy)phenyl)-5-((3-methylisoxazol-5-yl)amino)-1H-pyrazole-4-carboxamide] |
| < 0.01 | > 30 | > 30 | C[C@H](Oc1cc(-c2n[nH]c(Nc3cc(C4CCOCC4)on3)c2C(N)=O)ccc1NS(=O)(=O)C(F)F)c1ccc(F)cc1 [Compound 303, (S)-3-(4-((difluoromethyl)sulfonamido)-3-(1-(4-fluorophenyl)ethoxy)phenyl)-5-((5-(tetrahydro-2H-pyran-4-yl)isoxazol-3-yl)amino)-1H-pyrazole-4-carboxamide] |
